US20080292736A1, “Bioavailability enhancing activity of carum carvi extracts and fractions thereof” (COUNCIL OF SCIENTIFIC AND INDUSTRIAL RESEARCH, priority 2001, published 2008)
Read-outs that look alike come from different tables or passages of the source.

Key:
[1] = rat, in vivo; for % Enhancement in bioavailability, BE from Zingiber officinale: 35 mg/kg; for % Enhancement in bioavailability, Carum carvi (Cc) Extr.: 30 mg/kg
Description: (§1) Bioenhancers of Zingiber officinale, mean 50% alcoholic extract of fresh ginger. The doses remain unchanged whether the bioenhancers are used alone or in combination.
(§2) The amount of bioenhancers used are given below: • i. from Carum carvi: extract 30 mg/kg body weight (rats); Fraction No. 1: 15 mg/kg body weight (rats) • ii. piperine 8 mg/kg body weight (rats) • iii. Zingiber officinale: 35 mg/kg body weight (rats) • The drug used was rifampicin (40 mg/kg). The drug alone or in combination with the bioenhancers was administered to rats as given below: • Group 1: control • Group 2: Rifampicin alone • Group 3: bioenhancer alone • Group 4: Rifampicin with Carum carvi bioenhancer
(§3) Blood from the control/treated animals at predetermined intervals (0-24 hours) (total 14 timings). Rifampicin was extracted from the blood (plasma) using dichloromethane. […] The mobile phase was phosphate buffer:acetonitrile in a ratio of 40:60, and a flow rate of 1.0 ml/min.

[2] = drug with piperine; background statement; cited from earlier work
[3] = Enhancement of bioavailability of drugs given to rats with bioenhancers (plasma drug level by HPLC); details: for % Enhancement in bioavailability, BE from Carum carvi: drug with Carum carvi bioenhancer (aqueous or 50% alcoholic extract 30 mg/kg or Fraction No. 1 15 mg/kg), drug dose mg/kg
Description: as §1, §2, §3

Row | Compound | % Enhancement in bioavailability, BE from Carum carvi [1] | % Enhancement in bioavailability, Carum carvi + Piperine [1] | % Enhancement in bioavailability, Carum carvi + Zingiber officinale [1] | % Enhancement in bioavailability, BE from Zingiber officinale [1] | bioenhancing effect of piperine on the drug [2] | % Enhancement in bioavailability, Carum carvi + Zingiber officinale, Extr. (Cc) [1] | % Enhancement in bioavailability, Carum carvi + Zingiber officinale, Frac 1. (Cc) [1] | % Enhancement in bioavailability, Carum carvi + piperine, Extr. (Cc) [1] | % Enhancement in bioavailability, Carum carvi + piperine, Frac 1. (Cc) [1] | % Enhancement in bioavailability, Carum carvi (Cc) Extr. [1] | other results
1 | NNC(=O)c1ccncc1 [Isoniazid] | Nil | nil | nil | Nil | nil or marginal |  |  |  |  |  | 
2 | NC(=O)c1cnccn1 [Pyrazinamide] | 45% | 50% | 55% | Nil | nil or marginal |  |  |  |  |  | 
3 | CC(C)[C@H](N)C(=O)O [Valine] |  |  |  | 21% |  | 32% | 38% | 22% | 29% | 16% | 
4 | CC[C@H]1OC(=O)[C@H](C)[C@@H](O[C@H]2C[C@@](C)(OC)[C@@H](O)[C@H](C)O2)[C@H](C)[C@@H](O[C@@H]2O[C@H](C)C[C@H](N(C)C)[C@H]2O)[C@](C)(O)C[C@@H](C)CN(C)[C@H](C)[C@@H](O)[C@]1(C)O [Azithromycin] | 55% | 90% | 86% | 78% |  |  |  |  |  |  | 
5 | CO[C@H]1/C=C/O[C@@]2(C)Oc3c(C)c(O)c4c(O)c(c(/C=N/N5CCN(C)CC5)c(O)c4c3C2=O)NC(=O)/C(C)=C\C=C\[C@H](C)[C@H](O)[C@@H](C)[C@@H](O)[C@@H](C)[C@H](OC(C)=O)[C@@H]1C [Rifampicin] |  |  |  |  | highly significant |  |  |  |  |  | % Enhancement in bioavailability, BE from Carum carvi [3]: 110%; % Enhancement in bioavailability, Carum carvi + Zingiber officinale ([3]; drug with Carum carvi bioenhancer and Zingiber officinale 35 mg/kg, drug dose as in row): 140%; % Enhancement in bioavailability, Carum carvi + Piperine ([3]; drug with Carum carvi bioenhancer and piperine 8 mg/kg, drug dose as in row): 170%; % Enhancement in bioavailability, BE from Zingiber officinale ([3]; drug with Zingiber officinale 50% alcoholic extract of fresh ginger 35 mg/kg, drug dose as in row): 65%; % Enhancement in bioavailability, Piperine as BE ([3]; drug with piperine 8 mg/kg, drug dose as in row): 45%
6 | O=C1O[C@H]([C@@H](O)CO)C(O)=C1O [Vit C] |  |  |  | Nil |  | Nil | Nil | Nil | Nil | Nil | 
7 | C[C@@H]1O[C@@H](OC[C@H]2O[C@@H](Oc3c(-c4ccc(O)c(O)c4)oc4cc(O)cc(O)c4c3=O)[C@H](O)[C@@H](O)[C@@H]2O)[C@H](O)[C@H](O)[C@H]1O [Rutin] |  |  |  | 42% |  | 34% | 42% | 36% | 40% | 34% | 
8 | CCCNC(=O)NS(=O)(=O)c1ccc(Cl)cc1 [chlorpropamide] |  |  |  |  | does not enhance |  |  |  |  |  | 
9 | CCOC(=O)C1=C(COCCN)NC(C)=C(C(=O)OC)C1c1ccccc1Cl (stereo not shown) [Amlodipine] |  | 50% | 65% | 68% |  |  |  |  |  |  | % Enhancement in bioavailability, BE from Carum carvi [3]: Nil
10 | CNC(=C[N+](=O)[O-])NCCSCc1ccc(CN(C)C)o1 [Ranitidine] | 67% | 70% | 150% | 147% |  |  |  |  |  |  | 
11 | CN1C(C(=O)Nc2ccccn2)=C(O)c2ccccc2S1(=O)=O [Piroxicam] | Nil | 98% | 76% | 86% |  |  |  |  |  |  | 
12 | Cc1onc(-c2ccccc2Cl)c1C(=O)N[C@@H]1C(=O)N2[C@@H]1SC(C)(C)[C@@H]2C(=O)O [Cloxacillin] | 110% | 95% | 110% | 76% |  |  |  |  |  |  | 
13 | CC(C)C[C@H](N)C(=O)O [Leucine] |  |  |  | 24% |  | 35% | 40% | 29% | 32% | 19% | 
